In ChEMBL document CHEMBL1208724, “A new group of oxime carbamates as reversible inhibitors of fatty acid amide hydrolase” (Bioorg Med Chem Lett, 2010):

Target: T1, Fatty-acid amide hydrolase 1 (Mus musculus, UniProt O08914)
T1 sequence (O08914 whole entry): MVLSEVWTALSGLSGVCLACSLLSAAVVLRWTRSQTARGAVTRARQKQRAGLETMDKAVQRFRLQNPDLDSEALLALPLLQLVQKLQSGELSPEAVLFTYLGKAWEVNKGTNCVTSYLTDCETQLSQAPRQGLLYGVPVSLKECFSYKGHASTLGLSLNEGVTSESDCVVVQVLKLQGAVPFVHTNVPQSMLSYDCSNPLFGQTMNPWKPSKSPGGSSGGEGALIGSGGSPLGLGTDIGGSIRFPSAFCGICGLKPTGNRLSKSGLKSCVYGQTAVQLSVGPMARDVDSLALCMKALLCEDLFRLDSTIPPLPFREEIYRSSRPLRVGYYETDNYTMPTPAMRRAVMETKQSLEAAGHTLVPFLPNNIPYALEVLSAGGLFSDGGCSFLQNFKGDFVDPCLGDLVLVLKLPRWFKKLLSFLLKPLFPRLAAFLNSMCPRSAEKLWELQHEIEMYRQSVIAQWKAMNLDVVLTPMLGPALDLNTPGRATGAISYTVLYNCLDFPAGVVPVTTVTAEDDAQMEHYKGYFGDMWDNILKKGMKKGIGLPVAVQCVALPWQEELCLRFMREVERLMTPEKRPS
Assay: Inhibition of mouse brain FAAH assessed as conversion of [3H-ethanolamine]AEA to [3H]ethanolamine by scintillation counting

Structure (SMILES) | IC50 [nM]
COc1ccc(NC(=O)O/N=C(\C)c2cccc(-c3ccccc3)c2)cc1 | 28
C/C(=N\OC(=O)Nc1cccc2ccccc12)c1ccc(-c2cccs2)s1 | > 1000
C/C(=N\OC(=O)NCCCCCc1ccccc1)c1cccc(-c2ccccc2)c1 | 100
C/C(=N\OC(=O)Nc1ccccc1)c1cccc(-c2ccccc2)c1 | 69
CCCCCCCCCCCCNC(=O)O/N=C(\C)c1cccc(-c2cccs2)c1 | 116
C/C(=N\OC(=O)Nc1cccc2ccccc12)c1ccc(-c2ccccc2)cc1 | 401
C/C(=N\OC(=O)Nc1ccc2sccc2c1)c1cccc(-c2ccccc2)c1 | 232
C/C(=N\OC(=O)N1CCCCC1)c1cccc(-c2cccs2)c1 | 112
C/C(=N\OC(=O)N(c1ccccc1)c1ccccc1)c1cccc(-c2ccccc2)c1 | > 50000
C/C(=N\OC(=O)Nc1cccc2ccccc12)c1ccc(-n2c(C)ccc2C)cc1 | > 1000
